Laboratory results as given in patent US7968556B2, “Heteroaryl compounds, compositions thereof, and methods of treatment therewith” (Signal Pharmaceuticals, LLC, priority 2006, dated 2011).

Columns and labels:
mTOR = mTOR (Homo sapiens, UniProt P42345); assay: mTOR HTR-FRET Assay; type: biochemical
Protocol: The following is an example of an assay that can be used to determine the mTOR inhibitory activity of a test compound. Reagents are prepared as follows:
“Simple TOR buffer” (used to dilute high glycerol TOR fraction): 10 mM Tris pH 7.4, 10 mM NaCl, 0.1% Tween-20, 1 mM DTT (from 1M stock frozen at −20° C. just prior to use). For convenience a large quantity of “Simple TOR buffer” w/o DTT can be stored at 4° C. It can be brought to room temperature and DTT added just prior to dilution of TOR fraction.
5XKB/5XMn/5×ATP solution (used to dilute substrate GST-p70S6kin 81 a.a. just prior to use) (40 ml screen quantity shown):
Enzyme solution: Dilute TOR fraction 1:14 in “Simple TOR Buffer”. For current lot that is 640 μg/ml TOR fraction diluted 14× to yield 45.7 μg/ml TOR in buffer (i.e. 7.85 ml TOR pooled fraction+102.1 ml Simple TOR buffer=110 ml 14× diluted TOR fraction). Each Enzyme Lot must be QC'd prior to assay.
Substrate solution: This may be prepared just prior to assay if preferred. Dilute 5.3 mg/ml GST-p70S6kinase fragment stock to 3.5 μg/ml (97 nM) working stock in 5XKB/5XMn/5×ATP solution (i.e. 26.41 μL (5.3 mg/ml) GST-p70S6+40 ml 5XKB/5XMn/5×ATP=40 ml 3.5 μg/ml (97 nM)).
Assay Buffer (for dilution of Antibodies used in Antibody Detection Reagent):
Antibody Detection Reagent (this reagent should be made just prior to addition to Assay Plates):
Using PlateTrak program (Screen) or Matrix Pipettor (SAR), 19.5 μL of diluted TOR fraction is added to assay plate in all test, reference or positive control wells. 19.5 μL of “Simple TOR buffer” is added to all negative control wells. If treating multiple plates with the same compounds, can increase volume of enzyme to multiples of 19.5 μL in a tall 384 well polypropylene plate.
Using EP3, 0.5 μl of test, reference or control DMSO is added to each well with mixing. Plates are incubated for 30 minutes at room temperature.
Using PlateTrak program (Screen) or Matrix Pipettor (SAR) 5 μL of 5XKB/5XMn/5×ATP/5× substrate solution is added to each well of the assay plate to start the reaction. The solutions are mixed well and incubated for 2 hours at room temperature.
Using PlateTrak program (Screen) or Matrix Pipettor (SAR) 5 μL of 60 mM EDTA is added to stop the reaction. The solutions are mixed well and allowed to sit for 15-20 minutes before the next step.
Using PlateTrak program (Screen) or Matrix Pipettor (SAR) 10 μl of Antibody Detection Reagent is added. The solutions are mixes well and incubated for 5 hours to O/N to allow antibodies to form complexes with phosphorylated substrate.
Plates are read on AnalystHT using protocol Multi-Method protocol.

IKK-2 = target: T1, IKK-2 (Homo sapiens, UniProt O14920, S177E/S181E); assay: IKK-2 screening assay (IKK2EE 33P Assay / IKK2EE NEMO HTRF Assay); type: biochemical
T1 sequence (O14920 1-756 S177E/S181E): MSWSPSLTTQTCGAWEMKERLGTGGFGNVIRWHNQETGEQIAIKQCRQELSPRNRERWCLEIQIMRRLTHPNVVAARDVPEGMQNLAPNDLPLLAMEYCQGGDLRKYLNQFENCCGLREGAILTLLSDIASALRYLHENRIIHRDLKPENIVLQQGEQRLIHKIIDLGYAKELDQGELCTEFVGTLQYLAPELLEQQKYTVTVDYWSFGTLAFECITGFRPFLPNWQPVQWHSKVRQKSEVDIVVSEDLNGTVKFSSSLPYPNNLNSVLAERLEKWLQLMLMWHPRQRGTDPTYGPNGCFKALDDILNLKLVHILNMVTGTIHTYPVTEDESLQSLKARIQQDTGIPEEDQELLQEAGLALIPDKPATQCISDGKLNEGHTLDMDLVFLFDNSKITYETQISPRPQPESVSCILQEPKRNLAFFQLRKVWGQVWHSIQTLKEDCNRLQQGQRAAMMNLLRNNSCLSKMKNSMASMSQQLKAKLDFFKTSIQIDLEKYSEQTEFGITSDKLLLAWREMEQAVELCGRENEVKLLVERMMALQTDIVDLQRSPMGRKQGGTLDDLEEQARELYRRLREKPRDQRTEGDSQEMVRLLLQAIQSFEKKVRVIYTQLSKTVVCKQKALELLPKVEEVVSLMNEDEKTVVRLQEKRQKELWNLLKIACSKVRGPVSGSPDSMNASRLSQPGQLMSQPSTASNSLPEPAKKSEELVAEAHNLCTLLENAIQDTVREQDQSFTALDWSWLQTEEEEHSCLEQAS
Protocol: The following is an example of an assay that can be used to determine the IKK2EE inhibitory activity of a test compound.
A reaction buffer (pH 7.8) is prepared containing HEPES (20 mM), MgCl2 (10 mM), EDTA (0.1 mM), DTT (1 mM) and Triton X-100 (0.004%). IKK2EE (0.75 μg/ml is used. GST-IKBα (50 μg/ml) is used as substrate. Adenosine 5′-triphosphate (1.5 μM with ^33P-ATP 5 nCi/μl) is used. Reactions are stopped with trichloroacetic acid (6.25%).
Appropriate amounts of test compounds or controls in 100% DMSO are added to the assay plate. A peptide-substrate solution (PSS) is prepared by adding peptide stock to an appropriate volume of buffer (peptide concentration in the PSS will be about 100 μg/ml). An enzyme-peptide solution (EPS) is prepared by adding enzyme stock to an appropriate volume of PSS (the enzyme concentration in the EPS will be about 1 μg/ml). An ATP solution is prepared by adding ATP stock to an appropriate volume of buffer (the ATP concentration will be 15 μM).
85 μl of EPS is added to the assay wells (or PSS to positive control wells) of 96 well polypropylene plates. The ATP solution is then completed by adding ^33P-ATP (to a final concentration of 50 μCi/ml).
The reaction is initiated by adding 10 μl ATP solution to each well. Plates are shaken from about 12 seconds and allowed to incubate at room temperature for 1 hours. 100 μl of trichloroacetic acid solution (12.5%) is added to stop the reaction and the plates are incubated at room temperature for at least 10 minutes. The assay plates are harvested onto a Millipore Multiscreen harvest Plate FC using an appropriate harvester and the harvest plates are washed with 1×PBS solution for about 10 seconds (continuous flow). Harvest plates are allowed to dry thoroughly and the bottoms of the plates are sealed. 20-50 μl of Microscint20 is added to each well, tops are sealed and plates are read using an appropriate scintillation counter.
A reaction buffer (pH 7.6) is prepared containing HEPES (20 mM), MgCl2 (10 mM), EDTA (0.05 mM), DTT (1 mM) and Triton X-100 (0.004%). IKK2EE-NEMO (0.7 μg/ml is used. GST-IKBα (0.5 μg/ml) is used as substrate. Adenosine 5′-triphosphate (1.5 μM) is used. Detection reagents used are mouse anti-P-IKBα (30 ng/ml), Eu anti-mouse (300 ng/ml) and Cy5 anti-GST (11.5 μg/ml). Reactions are stopped with EDTA (20 mM).
An enzyme solution (ES) is prepared by adding enzyme stock to an appropriate volume of buffer (enzyme concentration in the ES will be about 1.7 ng/ml). A detection mixture (DM) is prepared by adding ATP (final conc. 3.75 μM), mouse anti-P-IKBα (final conc. 75 ng/ml), GST-IKBα (final conc. 1.26 μg/ml), Eu anti-mouse in buffer (final conc. 750 ng/ml).
5 μl of compound (solvated in 10% DMSO) is added to assay wells (or 10% DMSO to control wells) of low binding reaction plates. […] ES is added to assay wells (or buffer to control wells) and the reaction is initiated by adding 10 μl DM to all wells. Plates are incubated at room temperature for 45 minutes. Stop mixture is prepared by adding EDTA (final conc. 70 mM) and Cy5 anti-GST (final conc. 40 μg/ml) to an appropriate volume of buffer. Stop mixture is added and plates are shaken for 20 seconds and incubated at room temperature for at least 3 hours (preferably in the dark). Plates are read on an Analyst HT using Multi-Method HTRF.

IC50 (mTOR) [µM]	IC50 (IKK-2) [µM]	melting point [°C]	Compound
10.1 to 20	> 30	203 to 204	COc1ccccc1-n1c(=O)[nH]c2c(C(N)=O)nc(-c3ccc4cc[nH]c4c3)nc21 [Compound 11, 2-(1H-indol-6-yl)-9-(2-methoxyphenyl)-8-oxo-8,9-dihydro-7H-purine-6-carboxamide]
10.1 to 20	> 30	328 to 330	N#Cc1cccc(-c2nc(C(N)=O)c3[nH]c(=O)n(-c4ccccc4)c3n2)c1 [Compound 27, 2-(3-cyanophenyl)-8-oxo-9-phenyl-8,9-dihydro-7H-purine-6-carboxamide]
> 30	> 30	250 to 252	CN(C)C(=O)c1nc(-c2cccnc2)nc2c1[nH]c(=O)n2-c1ccccc1 [Compound 6, N,N-dimethyl-8-oxo-9-phenyl-2-(pyridin-3-yl)-8,9-dihydro-7H-purine-6-carboxamide]
> 30	> 30	279 to 281	COc1ncccc1-c1nc(C(N)=O)c2[nH]c(=O)n(-c3ccccc3)c2n1 [Compound 5, 2-(2-methoxypyridin-3-yl)-8-oxo-9-phenyl-8,9-dihydro-7H-purine-6-carboxamide]
10.1 to 20	> 30	334 to 335	NC(=O)c1nc(-c2cccnc2)nc2c1[nH]c(=O)n2Cc1ccccc1 [Compound 1, 9-benzyl-8-oxo-2-(pyridin-3-yl)-8,9-dihydro-7H-purine-6-carboxamide]
> 30	> 30	283 to 286	NC(=O)c1nc(-c2cccnc2Cl)nc2c1[nH]c(=O)n2-c1ccccc1 [Compound 4, 2-(2-chloropyridin-3-yl)-8-oxo-9-phenyl-8,9-dihydro-7H-purine-6-carboxamide]
10.1 to 20	> 30	298 to 304	NC(=O)c1nc(-c2ccncc2)nc2c1NC(=O)CN2c1ccccc1 [Compound 37, 6-oxo-8-phenyl-2-(pyridin-4-yl)-5,6,7,8-tetrahydropteridine-4-carboxamide]
> 30	> 30	> 330	CNC(=O)c1nc(-c2cccnc2)nc2c1[nH]c(=O)n2-c1ccccc1 [Compound 2, N-methyl-8-oxo-9-phenyl-2-(pyridin-3-yl)-8,9-dihydro-7H-purine-6-carboxamide]
0.1 to 5	10.1 to 20	–	NC(=O)c1nc(-c2cccnc2)nc2c1[nH]c(=O)n2C1CCN(C(=O)OCc2ccccc2)CC1 [Compound 32, benzyl 4-(6-carbamoyl-8-oxo-2-(pyridin-3-yl)-7H-purin-9(8H)-yl)piperidine-1-carboxylate]
0.1 to 5	20.1 to 30	386 to 388	COc1ccc(-n2c(=O)[nH]c3c(C(N)=O)nc(-c4cccc(O)c4)nc32)cc1 [Compound 12, 2-(3-hydroxyphenyl)-9-(4-methoxyphenyl)-8-oxo-8,9-dihydro-7H-purine-6-carboxamide]
0.1 to 5	> 30	–	NC(=O)c1nc(-c2cccc(O)c2)nc2c1[nH]c(=O)n2-c1ccccc1F [Compound 15, 9-(2-fluorophenyl)-2-(3-hydroxyphenyl)-8-oxo-8,9-dihydro-7H-purine-6-carboxamide]
20.1 to 30	5.1 to 10	298 to 299	NC(=O)c1nc(-c2cccnc2)nc2c1ncn2-c1ccccc1 [Compound 35, 9-phenyl-2-(pyridin-3-yl)-9H-purine-6-carboxamide]
–	> 30	> 350	Cn1c(=O)[nH]c2c(C(N)=O)nc(-c3cccnc3)nc21 [Compound 7, 9-methyl-8-oxo-2-(pyridin-3-yl)-8,9-dihydro-7H-purine-6-carboxamide]
–	20.1 to 30	347 to 349	NC(=O)c1nc(-c2ccccn2)nc2c1[nH]c(=O)n2-c1ccccc1 [Compound 3, 8-oxo-9-phenyl-2-(pyridin-2-yl)-8,9-dihydro-7H-purine-6-carboxamide]
0.1 to 5	> 30	–	NC(=O)c1nc(-c2cccc(O)c2)nc2c1[nH]c(=O)n2C1CCCCC1 [Compound 33, 9-cyclohexyl-2-(3-hydroxyphenyl)-8-oxo-8,9-dihydro-7H-purine-6-carboxamide]
